Where two headings read alike, the source gives them in different places.
Key:
[1] = biological target: T1, endogenous DHFR-C-HiBiT in HEK293 cell lysate (Homo sapiens, UniProt P00374); assay: SDR assay, cellular lysate from DHFR C-terminus HiBiT gene edited HEK293 cells; assay type: binding
T1 construct: from a mammalian cellular lysate containing an endogenous α-peptide tagged protein, obtained using CRISPR/Cas9-mediated homologous recombination; host or cells: HEK293 constitutively expressing S. pyogenes Cas9, CRISPR/HDR-edited monoclonal line; NP-40 lysate used at 1:100
T1 sequence (P00374 1-187): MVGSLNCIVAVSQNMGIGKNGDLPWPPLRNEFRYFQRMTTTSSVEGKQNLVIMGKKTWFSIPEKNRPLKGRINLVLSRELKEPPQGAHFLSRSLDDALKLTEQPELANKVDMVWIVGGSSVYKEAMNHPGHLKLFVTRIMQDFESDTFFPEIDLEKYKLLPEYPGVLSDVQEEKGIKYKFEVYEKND
Text: A HEK293 cell line constitutively expressing S. pyogenes Cas9 (GeneCopoeia, Cat # SL553) was used to generate the C-terminal edit of the DHFR gene (DHFR-C-HiBiT) applying general methodology previously described[24],[52],[53]. The DHFR 3’-gene sequence surrounding the stop codon (underlined), […] […], used to generate the CRISPR-Cas9 crRNA sequence, […], was accomplished with IDT software (Custom Alt-R CRISPR-Cas9 guide RNA).
For lysate preparation, the DHFR-C-HiBiT gene edited HEK293 monoclonal cell line was grown in a T75 flask (DMEM, 10% FBS, 1% P/S) to confluence. […] The cell pellet was lysed by adding 500 μL ice-cold NP-40 lysis buffer (ThermoFisher Scientific, Cat # FNN0021) containing 5 µL 100x protease inhibitor cocktail in DMSO (Sigma Aldrich, Cat # P8340-1mL) incubated on a rocker at 4 °C for 1 h (protected from light), centrifuged at 15,000 g for 10 min at 4 °C, after which supernatant was transferred to a 1.5 mL Eppendorf tube, and frozen at −80 °C.
Protein-HiBiT targets were expressed and purified to various levels of homogeneity and optimized at indicated concentrations, not necessarily the lowest possible concentrations, to produce consistent luminescence with statistically significant signal above no protein background control in target specific assay buffer (see Supplementary Table 11). Four μL/well buffer control (column 1) and NLuc or HiBiT tagged proteins (columns 2-48) were dispensed into 1536-well Greiner Bio-One white, high solid base, medium bind plates with a BioRaptr 2. Compounds and controls were added to the microtiter plates as described in Supplementary Data 8, then incubated and protected from light for 30 min at ambient temperature. A modified dispensing protocol was developed for aqueous ligands that were unable to be transferred by pintool (see Supplementary Table 10 aqueous ligand dispense section). The substrate solution was prepared according to manufacturer’s protocol where ω-fragment (LgBiT) was added at 1:100 dilution and NLuc substrate (furimazine) was prepared at 1:50 dilution in Nano-Glo HiBiT lytic buffer (Promega, Cat # N3040). This substrate solution, 3 μL/well, was added with a BioRaptr 2 and assay plates were protected from light and incubated for 10 min at ambient temperature. NLuc luminescence was measured on a ViewLux CCD plate reader with optimized reader settings to each protein target (see Supplementary Tables 10, 11 and Supplementary Fig. 14 for additional details).

DHFR-C-HiBiT [2] = biological target: T2, DHFR-C-HiBiT (Homo sapiens, UniProt P00374); assay: SDR assay, purified DHFR-C-HiBiT
T2 sequence (P00374 2-187): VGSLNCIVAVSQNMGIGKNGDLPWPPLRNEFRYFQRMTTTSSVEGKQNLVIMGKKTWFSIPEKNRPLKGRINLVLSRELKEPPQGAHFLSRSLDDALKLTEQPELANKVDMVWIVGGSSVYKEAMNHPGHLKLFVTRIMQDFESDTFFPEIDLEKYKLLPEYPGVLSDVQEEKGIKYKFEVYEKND

DHFR-C-HiBiT [3] = biological target: T2, DHFR-C-HiBiT; assay: Dihydrofolate reductase enzymatic absorbance assay; assay type: biochemical; parameters: His10 (C); made in house; host or cells: E. coli; conditions: functional DHFR-C-HiBiT assay (100 nM); read-out: pIC50 (DHFR Enz Assay), Mean (converted)
Protocol: To accommodate consistent compound addition used in this study, DHFR enzymatic activity[72],[73] was measured in a 1536-well miniaturized assay adapted from the Sigma-Aldrich dihydrofolate reductase assay (Cat # CS0340). […] Compounds and controls were added as above to each plate as described in Supplementary Data 8. DHFR-C-HiBiT was incubated with compounds for 20 min at ambient temperature. […] Then 2 µL of dihydrofolate (DHF, Sigma-Aldrich, Cat # D7006) substrate, freshly prepared according to manufacturer’s protocol and diluted in 1X assay kit buffer, was dispensed into each microplate well with a BioRaptr 2 for a final assay DHF concentration of 100 μM. […] See Supplementary Table 9 for additional details.
Supplementary Table 9. Protocol for Dihydrofolate reductase (DHFR) enzymatic absorbance […]
Supplementary Table 9: Protocol for Dihydrofolate reductase (DHFR) enzym atic absorbance assay Sequence Param eter ValueDescription
No enzym e control (colum n 1) and enzym e solution (100 nM DHFR-C-HiBiT final assay […]
(Aurora), dispensed with BioRaptr 2 […]
com pounds transferred to respective colum ns with Pintool
2b Test Com pounds 23 nLfinal concentration range) in colum ns 5-48; com pounds transferred to respective wells with […]
3 Incubation 20 m inIncubate enzym e + com pounds at am bient tem p for 20 m in, protected from light 5 Reagent 2 µLSubstrate solution; dihydrofolic acid (100 µM final concentration) in 1X assay buffer; dispensed with BioRaptr 2
6 Incubation 10 m inAm bient tem perature, protected from light
Dihydrofolic acid substrate solution: 1X assay buffer (Sigm a-Aldrich, Cat # A5603); 300 µM dihydrofolic acid (100 µM 5 final) (Sigm a-Aldrich, Cat # D7006) prepared fresh according to m anufacturer’s protocol. Solution filtered through 0.22 µm syringe filter prior to dispense.

EC50 ([1]; 1:100 lysate (~0.2 nM) with 1 mM NADPH, read-out: pSDR50 (lysate + 1 mM NADPH), Mean (converted)): 0.316 nM | EC50 ([1]; 1:100 lysate (~0.2 nM) without added NADPH, read-out: pSDR50 (lysate), Mean (converted)): 3.16 nM | EC50 (DHFR-C-HiBiT [2]): 1.02 nM | enhanced sensitivity in the SDR assay format versus functional DHFR assay (DHFR-C-HiBiT [2]; DHFR-C-HiBiT 0.5 nM, 5 μM NADPH (SDR) vs 100 nM, 75 μM NADPH (functional)): ~ 100 fold | IC50 (DHFR-C-HiBiT [3]): 107 nM
Compound: C#CCC(Cc1cnc2nc(N)nc(N)c2n1)c1ccc(C(=O)N[C@@H](CCC(=O)O)C(=O)O)cc1 (some centres unmarked) [pralatrexate]
